The values below come from patent publication EP0386044B1, “HYPOGLYCAEMIC PEPTIDES” (MONASH UNIVERSITY, priority 1987, dated 1997).

Where no end group is shown, it is not given here. [ ]: non-standard residue; d: D form.

In one assay the test system is rats. Description: Decrease in blood glucose level in rats following intravenous injection of peptides. Format: in vivo. To be noted: for hypoglycaemic effect (change in blood glucose level), in words: injection of peptide, Table 2 and Figure 9; for Decrease in blood from basal / Difference from control mean: intravenous injection, peptide 0.5 µmol/100g; for Decrease in blood from basal: change of blood glucose from basal level (4.0 - 4.4 mmol glucose/l) at time 0, control 1.05; for Difference from control mean: difference of blood glucose decrease from control mean (1.05). The source says:
Values are changes (means ± SEM) of blood glucose from the basal level (4.0 - 4.4 mmol glucose/l) at time 0. Differences between the control and test groups were statistically evaluated according to Student's t-test. N.S. indicates 2P > 0.05.
Similar results are illustrated graphically in Figure 9.

For the next assay, the system named is mice. Put plainly: In vivo testing for insulin-potentiating activity on untrained and trained mice. To be noted: untrained female mice and untrained or trained male mice, 2.3 or 2.4 mg/kg peptide in 0.2 ml saline, insulin injected at t0; Figures 12 and 13. On the procedure:
The dotted lines represent control animals (injected with 0.2 ml of saline) in each case. The unbroken lines represent test animals (injected with 2.4 mg/Kg of peptide in 0.2 ml of saline). Insulin was injected at to. • Figure 13 represents in vivo testing of peptides for insulin-potentiating activity on "untrained" and "trained" male mice. The dotted line represents the mean fall in blood glucose for control animals (injected with 0.2 ml of saline). The unbroken line represents the mean fall in blood glucose for test animals, injected with 2.3 mg/kg of peptide in 0.2 ml of saline, except for (a), in which the dose was 2.4 mg/kg. • (a) Pep 6-13 (Gln^11Asp^12), "untrained" • (b) Pep 6-13 (Gln^11Asp^12), "trained" • (c) Pep 6-13 (Asn^11Asp^12), "trained" • (d) Pep 6-13 (Asp^12), "trained" Insulin was injected at to.
The dose of Pep (6-13) was 200 µg/Kg body weight. Similarly, various forms of the peptide according to the invention in its β imide form potentiate the hypoglycaemic effect of insulin on "untrained" male and female mice. The effect on trained male mice trained to feed on schedule as described above was less striking, but still significant in some cases.

The subject of assay [1] is cultured muscle cells (L6 rat skeletal muscle cell line). Description: Cultured cell assay for stimulation of glucose uptake. Type of assay: cell-based. Conditions: peptide 10µg/ml. The source says:
In these assays collagenase-dispersed rat adipocytes, cultured muscle cells (L6 rat skeletal muscle cell line) and hemidiaphragm preparations were employed.
The effect of the β imide form peptides on glucose metabolism is further shown by their ability to stimulate glucose uptake and glycogen synthesis by cultured muscle cells and isolated rat hemidiaphragms.

For “Pep (6-13) Tyr^10 α form: variant Tyr^10 of Pep (6-13), α form (LSRLYDNA; UniProt P01241 32-39, looked up, variant F10Y)”, the “hypoglycaemic effect (change in blood glucose level), in words” value with rats is “inactive”. As for “L-α-Asp at position 11 in hGH[6-13]: inactive control peptide, hGH[6-13] with L-α-Asp at position 11 and Asp at 12 (LSRLFDDA; UniProt P01241 32-39, looked up, variant N12D)”, the insulin-potentiating activity result in the assay on mice was “inactive”. On to LSRL[dF]DNA [Pep P057], for which the “Rate of Increase from Basal” value in assay [1] was found to be 2.0 µmol glucose/hour. Regarding “Pep (6-13) Gly^10 α form: variant Gly^10 of Pep (6-13), α form (LSRLGDNA; UniProt P01241 32-39, looked up, variant F10G)”, the “hypoglycaemic effect (change in blood glucose level), in words” value in the assay with rats was “inactive”. On the same count and under the same terms, the entry for “Pep (6-13) Pro^11 α form: variant Pro^11 of Pep (6-13), α form (LSRLFPNA; UniProt P01241 32-39, looked up, variant D11P)” is “inactive”; for “Pep (6-13) Ala^11 α form: variant Ala^11 of Pep (6-13), α form (LSRLFANA; UniProt P01241 32-39, looked up, variant D11A)” it is “inactive”; for “Pep (6-13) Gly^10Pro^11 α form: variant Gly^10Pro^11 of Pep (6-13), α form (LSRLGPNA; UniProt P01241 32-39, looked up, variant F10G D11P)” it is “inactive”. “Pep (6-15): synthetic peptide corresponding to residues 6-15 of human growth hormone, α form (LSRLFDNAML; UniProt P01241 32-41, looked up, fragment)”: in the assay with rats, the “hypoglycaemic effect (change in blood glucose level), in words” value is “active only in the β imide form”; the “Decrease in blood from basal” value came out at 1.26; the “Difference from control mean” value is reported as 0.21. For “Pep (6-12): synthetic peptide corresponding to residues 6-12 of human growth hormone, α form (LSRLFDN; UniProt P01241 32-38, looked up, fragment)” the same measures were “active only in the β imide form”, 1.00 and -0.05. Turning to “Pep (9-13): synthetic peptide corresponding to residues 9-13 of human growth hormone, α form (LFDNA; UniProt P01241 35-39, looked up, fragment)”, in the assay on rats, the “hypoglycaemic effect (change in blood glucose level), in words” value is given as “neither the α form nor the β imide form was active”; the “Decrease in blood from basal” value was found to be 1.12; the “Difference from control mean” value was found to be 0.07.
